Results as given in US7781421B2, “Neuroactive 13, 24-cyclo-18, 21-dinorcholanes and structurally related pentacyclic steriods” (Washington University, priority 2003, dated 2010).
Several values for one entry are separate records, joined by “and”; a condition that tells them apart may be missing. Equal values may be shown once.

What was measured:
[1] = biological target: GABAA receptor ([35S]-TBPS binding site, rat brain cortical membranes); test: Displacement of [35S]-TBPS binding, rat brain cortical membranes; settings: 5 μM GABA, 2 nM [35S]-TBPS; ± standard error of the means
In short: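 Rat cortical P2 membranes (0.5 mg/mL protein) incubated 2 h at room temperature with 2 nM [35S]-TBPS, 5 μM GABA and steroid (1 nM–10 μM) in 200 mM NaCl/50 mM potassium phosphate, pH 7.4. Filter-bound radioactivity counted; IC50 from Hill equation fit, triplicate points.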

[2] = biological target: T1, rat α1β2γ2 GABAA Receptor (Rattus norvegicus, UniProt P18508+P62813+P63138, INS375LLRMFSFK); test: Xenopus oocyte two-electrode voltage-clamp electrophysiology; format: cell-based; settings: for Oocyte electrophysiology, ratio of currents in presence/absence of compound, 0.1 μM: 0.1 μM compound co-applied with 2 μM GABA; for Oocyte electrophysiology, ratio of currents in presence/absence of compound, 0.1 μM / Oocyte electrophysiology, ratio of currents in presence/absence of compound, 1 μM / Oocyte electrophysiology, ratio of currents in presence/absence of compound, 10 μM: −70 mV; for Oocyte electrophysiology, ratio of currents in presence/absence of compound, 1 μM: 1 μM compound co-applied with 2 μM GABA; for Oocyte electrophysiology, ratio of currents in presence/absence of compound, 10 μM: 10 μM compound co-applied with 2 μM GABA; for Gating (10 μM), ratio of compound only current/2 μM GABA current: direct current gated by 10 μM compound in the absence of GABA
T1 construct: from linearized pBluescript vectors containing receptor coding regions; expressed in transfected cells; host or cells: Xenopus laevis oocytes injected with in vitro transcribed capped mRNA
In short: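 Oocytes injected with rat α1, β2, γ2L mRNA, voltage-clamped at −70 mV 2-5 days later in ND96. Compounds co-applied with 2 μM GABA for 20 s; peak current ratio with/without compound, n≥4 oocytes. (G): current from 10 μM compound alone, as ratio to 2 μM GABA current.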

Xenopus laevis tadpoles = test: Tadpole loss of righting (LRR) and swimming (LSR) reflexes; format: in vivo; settings: 3 h equilibration at room temperature; for EC50: Xenopus laevis, 3 h, read-out: LSR EC50 (loss of swimming response)
In short: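 Groups of 10 early prelimb-bud Xenopus laevis tadpoles were held for 3 h at room temperature in oxygenated Ringer's containing compound (DMSO ≤0.1%). Loss of righting was scored as failure to right within 5 sec after flipping, and loss of swimming as failure to swim when touched. EC50 came from a Hill equation fit.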

T1 sequence (P62813 28-455, stated change not applied): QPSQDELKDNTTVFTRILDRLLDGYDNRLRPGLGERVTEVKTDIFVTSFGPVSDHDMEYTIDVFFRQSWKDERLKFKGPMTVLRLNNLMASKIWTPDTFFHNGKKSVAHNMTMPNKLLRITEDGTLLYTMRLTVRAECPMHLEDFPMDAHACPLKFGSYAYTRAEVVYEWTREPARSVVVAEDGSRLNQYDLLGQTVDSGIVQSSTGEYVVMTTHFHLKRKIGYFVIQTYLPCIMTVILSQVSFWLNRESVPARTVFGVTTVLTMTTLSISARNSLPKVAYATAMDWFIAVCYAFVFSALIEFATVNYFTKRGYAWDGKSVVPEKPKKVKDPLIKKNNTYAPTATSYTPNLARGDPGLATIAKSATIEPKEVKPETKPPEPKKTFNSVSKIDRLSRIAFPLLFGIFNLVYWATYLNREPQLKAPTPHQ
T1 sequence (P63138 26-474, stated change not applied): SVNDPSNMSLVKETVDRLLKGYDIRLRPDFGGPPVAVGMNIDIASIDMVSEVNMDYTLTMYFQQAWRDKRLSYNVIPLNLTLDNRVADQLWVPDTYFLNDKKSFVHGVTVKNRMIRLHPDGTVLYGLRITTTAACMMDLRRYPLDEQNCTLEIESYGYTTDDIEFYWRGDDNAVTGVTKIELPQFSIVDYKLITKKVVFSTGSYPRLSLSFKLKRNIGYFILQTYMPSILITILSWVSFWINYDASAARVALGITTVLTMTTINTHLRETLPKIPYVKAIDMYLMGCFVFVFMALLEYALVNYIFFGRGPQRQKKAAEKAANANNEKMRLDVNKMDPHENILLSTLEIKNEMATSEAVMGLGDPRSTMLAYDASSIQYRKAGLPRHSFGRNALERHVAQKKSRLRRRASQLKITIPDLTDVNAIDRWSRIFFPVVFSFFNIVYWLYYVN
T1 sequence (P18508 with tags, fused parts or gaps INS375LLRMFSFK): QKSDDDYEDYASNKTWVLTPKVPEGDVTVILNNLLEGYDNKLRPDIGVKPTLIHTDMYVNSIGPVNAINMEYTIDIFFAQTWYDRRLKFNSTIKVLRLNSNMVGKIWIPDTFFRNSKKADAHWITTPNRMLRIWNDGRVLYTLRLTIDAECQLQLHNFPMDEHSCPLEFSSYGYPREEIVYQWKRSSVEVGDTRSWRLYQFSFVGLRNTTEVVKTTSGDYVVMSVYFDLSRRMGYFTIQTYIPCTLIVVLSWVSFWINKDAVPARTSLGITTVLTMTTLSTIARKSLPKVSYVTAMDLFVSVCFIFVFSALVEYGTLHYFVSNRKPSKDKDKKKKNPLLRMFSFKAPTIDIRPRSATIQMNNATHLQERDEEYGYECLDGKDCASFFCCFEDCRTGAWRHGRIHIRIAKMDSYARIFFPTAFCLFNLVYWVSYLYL

SMILES | IC50 [1] | Oocyte electrophysiology, ratio of currents in presence/absence of compound, 0.1 μM [2] | Oocyte electrophysiology, ratio of currents in presence/absence of compound, 1 μM [2] | Oocyte electrophysiology, ratio of currents in presence/absence of compound, 10 μM [2] | Gating (10 μM), ratio of compound only current/2 μM GABA current [2] | LRR ED50 (loss of righting response) (Xenopus laevis tadpoles) | LSR EC50 (loss of swimming response) (Xenopus laevis tadpoles) | melting point | EC50 (Xenopus laevis tadpoles)
C[C@]12CC[C@@H](O)C[C@@H]1CCC1C3CC[C@@H]4CCC=C[C@]34CCC12 (stereo partly drawn) [Compound 61, (3α,5α)-13,24-Cyclo-18,21-dinorchol-23-en-3-ol] | 2000 ± 190 nM | 1.28 ± 0.08 | 1.47 ± 0.10 | 1.72 ± 0.26 | 0.19 ± 0.10 | None @ 10 | None @ 10 | 166.5 to 169 °C | 
C[C@]12CC[C@@H](O)C[C@@H]1CCC1C3CC[C@@H]4/C(=C/C#N)CCC[C@]34CCC12 (stereo partly drawn) [Compound 63, (3α,5α,20E)-3-Hydroxy-13,24-cyclo-18-norcholan-20-ene-21-carbonitrile] | 11 ± 1.8 nM | 6.29 ± 1.71 | 12.34 ± 3.28 | 17.82 ± 3.75 | 0.01 ± 0.02 | 40 ± 0 nM |  | 210 to 212 °C and 214 to 216 °C | 80 ± 20 nM
CC12CCC(O)CC1CCC1C2CCC23CCCC(=CC#N)C2CCC13 (stereo not drawn) [Compound 64, (3α,5α,20Z)-3-Hydroxy-13,24-cyclo-18-norcholan-20-ene-21-carbonitrile] | 1080 nM | 1.19 ± 0.04 | 1.27 ± 0.03 | 1.74 ± 0.11 | 0.03 ± 0.04 | 680 ± 150 nM |  | 201.5 to 203 °C | 10200 nM
CC12CCC(O)CC1CCC1C2CCC23CCCC(O)C2CCC13 [Compound 67, (3α,5α,20S)-13,24-cyclo-18,21-dinorcholane-3,20-diol] | 613 ± 92 nM | 0.89 ± 0.03 | 0.94 ± 0.08 | 1.37 ± 0.15 | −0.01 ± 0.00 | None @ 10 | None @ 10 | 261 to 262 °C | 
CC12CCC(O)CC1CCC1C2CCC23CCCC(O)C2CCC13 [Compound 68, (3α,5α,20R)-13,24-cyclo-18,21-dinorcholane-3,20-diol] | 1540 nM | 0.74 ± 0.05 | 0.74 ± 0.05 | 0.79 ± 0.04 | 0.01 ± 0.02 | >10000 nM | None @ 10 | 269 to 271 °C | 
COC1CCCC23CCC4C(CCC5CC(O)CCC54C)C2CCC13 [Compound 69, (3α,5α,20S)-20-Methoxy-13,24-cyclo-18,21-dinorcholan-3-ol] | 353 ± 38 nM | 0.90 ± 0.04 | 1.26 ± 0.09 | 1.72 ± 0.28 | 0.00 ± 0.00 | None @ 10 | None @ 10 | 182 to 183 °C | 
COC1CCCC23CCC4C(CCC5CC(O)CCC54C)C2CCC13 [Compound 70, (3α,5α,20R)-20-Methoxy-13,24-cyclo-18,21-dinorcholan-3-ol] | 868 ± 78 nM | 0.74 ± 0.01 | 0.87 ± 0.02 | 1.02 ± 0.03 | 0.00 ± 0.00 | >10000 nM | None @ 10 | 200 to 202 °C | 
C[C@]12CC[C@@H](O)C[C@@H]1CCC1C3CC[C@@H]4[C@H]5O[C@H]5CC[C@]34CCC12 (stereo partly drawn) [Compound 71, (3α,5α,20R,22S)-20,22-Epoxy-13,24-cyclo-18,21-dinorcholan-3-ol] | 596 ± 71 nM | 0.90 ± 0.05 | 1.05 ± 0.09 | 1.94 ± 0.23 | 0.00 ± 0.00 | None @ 10 | None @ 10 | 206 to 208 °C | 
